# In patent publication US20210283213A1, “CRYSTAL OF POLYMYXIN B1 SULFATE, POLYMYXIN B2 SULFATE OR THEIR MIXTURE AND PREPARATION METHOD THEREOF” (Hubei Ruihaoanke Pharmaceutical Technology Development Co., …, priority 2016, published 2021):
# Experiments:
# Assay type in all cases: physicochemical
# [1] = DVS (dynamic moisture adsorption analysis); settings: 0% RH-80% RH
# [2] = Hot stage XRD
# [3] = TGA (thermogravimetric analysis)
# [4] = Stability evaluation of crystal form in a dry state at room temperature; settings: placed in a dry state at room temperature for 3 days
# [5] = Crystal form competitive experiment; settings: in ethanol and in a mixed solvent of ethanol/water at room temperature
# Procedure: (§1) A competitive experiment between crystal form 1 and crystal form A of polymyxin sulfate was carried out to investigate crystal form stability of the two crystal forms in the solvent, water and ethanol, which are commonly used in the preparation, and to evaluate the conversion of the two crystal forms, in order to provide reference for subsequent preparation operations such as granulation.
# 1. Equal amounts of samples of crystal form 1 and form A were taken and mixed uniformly to obtain an initial mixed sample, which was used for XRD detection (FIG. 14).
# 2. The uniformly-mixed sample was divided into two portions, to one of which was added 200 μL ethanol, and to another of which was added 300 μL mixed solvent of ethanol/water=5/1 (v/v), to form a suspension. The suspension was stirred at room temperature, and centrifuged and sampled at different times for XRD detection.
# [6] = Crystal mush experiment at room temperature; settings: in ethanol and in a mixed solvent of ethanol/water at room temperature
# Procedure: as §1
substance,measurement,setting,value
polymyxin B1 sulfate [crystal form 1],hygroscopicity,[1],extremely strong hygroscopicity.
same,crystal form change on heating,[2],The crystal form has not changed when heating up to 170 °C
same,decomposition temperature,[3],"XRD, and the decomposition temperature was 222 °C"
same,Stability evaluation,[4],"Unstable, the crystal form changed to crystal form A when placed"
polymyxin B1 sulfate [crystal form A],hygroscopicity,[1],extremely strong hygroscopicity.
same,decomposition temperature,[3],"with hot stage XRD, and the decomposition temperature was 213 °C"
same,most stable crystal form (competitive experiment),[5],most stable crystal form
same,most stable crystal form (crystal mush experiment),[6],most stable crystal form
